Target: hSA (Homo sapiens, UniProt P02768)
Experiment: hSA binding assay (hSA-coated microtiter plate, streptavidin-polyHRP/ABTS, OD 405 nm)
Settings: for Bmax: given only for compounds with an Exp 2 value
Procedure: hSA binding assay. Microtiter 96 well plate is coated, overnight at 4° C., using […] of a solution of hSA in PBS ([…]). Plate is washed with PBS and blocked, for 1 hours, using 150 ml, per well, of a 10% solution of Tween 20 in water. After 1 hour the wells are washed with PBS. The hSA binders tested are dissolved in PBS, 100 ml of the tested solutions are then added in the well and incubated for 2 hours. After 2 hours, the solution are discarded and the wells are washed using PBS, 0.1% Tween 20. 100 ml of a solution of streptavidin-polyHRP in PBS 1.375% casein is added to the wells and incubated for 1 more hours. Finally wells are washed with PBS, 0.1% Tween 20, and 100 ml ABTS in phosphate-citrate buffer with sodium perborate is added. After a few minutes OD are read at 405 nm.
A plurality of compounds according to the invention were prepared. All of the compounds contained the Cys-Pro-Cys moiety. These compounds and an assay control were tested using the above procedure. Some compounds were tested twice (Exp 1 and Exp 2).

Sequence of hSA (P02768 25-609): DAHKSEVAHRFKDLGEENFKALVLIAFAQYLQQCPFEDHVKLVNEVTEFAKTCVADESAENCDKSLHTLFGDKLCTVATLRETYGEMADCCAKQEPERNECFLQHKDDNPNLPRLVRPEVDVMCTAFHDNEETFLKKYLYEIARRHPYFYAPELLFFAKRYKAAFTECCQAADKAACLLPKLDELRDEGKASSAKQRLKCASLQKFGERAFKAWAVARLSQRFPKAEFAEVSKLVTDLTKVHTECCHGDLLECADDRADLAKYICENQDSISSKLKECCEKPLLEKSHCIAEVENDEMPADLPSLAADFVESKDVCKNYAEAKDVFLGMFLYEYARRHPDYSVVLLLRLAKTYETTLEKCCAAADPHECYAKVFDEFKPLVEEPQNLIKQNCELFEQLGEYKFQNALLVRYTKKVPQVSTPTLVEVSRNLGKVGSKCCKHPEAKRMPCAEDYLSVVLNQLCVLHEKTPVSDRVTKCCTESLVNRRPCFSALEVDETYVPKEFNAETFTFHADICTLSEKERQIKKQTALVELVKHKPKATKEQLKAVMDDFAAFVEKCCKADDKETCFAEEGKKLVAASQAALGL

Binding, Exp 1 | Binding, Exp 2 | Bmax | Sequence
– | 0.1395 | 1.19 | KLIVDICPCLW [Compound 95, KLIVDI-LW, "-" represents cysteine-proline-cysteine]
2.575 | 0.1137 | 0.3906 | KVIEDICPCLW [Compound 64, KVIEDI-LW, "-" represents cysteine-proline-cysteine]
– | 0.2987 | 1.253 | LKIKDICPCLW [Compound 94, LKIKDI-LW, "-" represents cysteine-proline-cysteine]
– | 0.2479 | 0.8746 | REIEDICPCLW [Compound 96, REIEDI-LW, "-" represents cysteine-proline-cysteine]
0.8196 | – | – | RLIEDECPCLW [Compound 58, RLIEDE-LW, "-" represents cysteine-proline-cysteine]
1.031 | – | – | RLIEDICPCAW [Compound 59, RLIEDI-AW, "-" represents cysteine-proline-cysteine]
1.877 | – | – | RLIEDICPCLH [Compound 63, RLIEDI-LH, "-" represents cysteine-proline-cysteine]
6.227 | – | – | RLIEDICPCLK [Compound 66, RLIEDI-LK, "-" represents cysteine-proline-cysteine]
5.789 | – | – | RLIEDICPCLQ [Compound 65, RLIEDI-LQ, "-" represents cysteine-proline-cysteine]
1.193 | – | – | RLIEDICPCQW [Compound 60, RLIEDI-QW, "-" represents cysteine-proline-cysteine]
0.3108 | – | – | RLIEDICPCVW [Compound 52, RLIEDI-VW, "-" represents cysteine-proline-cysteine]
0.3336 | – | – | RLIEDVCPCLW [Compound 54, RLIEDV-LW, "-" represents cysteine-proline-cysteine]
0.7026 | – | – | RLIEEICPCLW [Compound 57, RLIEEI-LW, "-" represents cysteine-proline-cysteine]
1.238 | – | – | RLIESICPCLW [Compound 61, RLIESI-LW, "-" represents cysteine-proline-cysteine]
– | 0.1909 | 0.8584 | RLIQICPCLW [Compound 97, RLIQI-LW, "-" represents cysteine-proline-cysteine]
– | 0.2247 | 1.301 | RLISDICPCLW [Compound 98, RLISDI-LW, "-" represents cysteine-proline-cysteine]
– | 0.1598 | 0.6151 | RTIEDICPCLW [Compound 99, RTIEDI-LW, "-" represents cysteine-proline-cysteine]

The next lines start with the sequence.

Sequence | Binding, Exp 1 | Binding, Exp 2 | Bmax
KLISDICPCLW [Compound 3, KLISDI-LW, "-" represents cysteine-proline-cysteine] | 0.02504 | – | –
KLIYDICPCLW [Compound 29, KLIYDI-LW, "-" represents cysteine-proline-cysteine] | 0.1014 | 0.09262 | 0.7912
KLLEDICPCLW [Compound 9, KLLEDI-LW, "-" represents cysteine-proline-cysteine] | 0.04197 | – | –
KLQEDICPCLW [Compound 31, KLQEDI-LW, "-" represents cysteine-proline-cysteine] | 0.1033 | – | –
KLTEDICPCLW [Compound 24, KLTEDI-LW, "-" represents cysteine-proline-cysteine] | 0.07352 | – | –
KLVEDICPCLW [Compound 41, KLVEDI-LW, "-" represents cysteine-proline-cysteine] | 0.1635 | – | –
KQIEDICPCLW [Compound 47, KQIEDI-LW, "-" represents cysteine-proline-cysteine] | 0.2411 | 0.581 | 1.4
KTIEDICPCLW [Compound 22, KTIEDI-LW, "-" represents cysteine-proline-cysteine] | 0.06947 | 0.1476 | 1.427
RFIEDICPCLW [Compound 8, RFIEDI-LW, "-" represents cysteine-proline-cysteine] | 0.04142 | 0.1971 | 1.136
RIIEDICPCLW [Compound 40, RIIEDI-LW, "-" represents cysteine-proline-cysteine] | 0.1632 | 0.1166 | 0.6826
RLEEDICPCLW [Compound 17, RLEEDI-LW, "-" represents cysteine-proline-cysteine] | 0.0625 | – | –
RLIADICPCLW [Compound 4, RLIADI-LW, "-" represents cysteine-proline-cysteine] | 0.03473 | 0.1216 | 1.036
RLIDDICPCLW [Compound 6, RLIDDI-LW, "-" represents cysteine-proline-cysteine] | 0.03897 | 0.2179 | 1.256
RLIEDACPCLW [Compound 38, RLIEDA-LW, "-" represents cysteine-proline-cysteine] | 0.1522 | – | –
RLIEDICPCFW [Compound 10, RLIEDI-FW, "-" represents cysteine-proline-cysteine] | 0.04544 | – | –
RLIEDICPCLV [Compound 43, RLIEDI-LV, "-" represents cysteine-proline-cysteine] | 0.1701 | – | –
RLIEDICPCLW [Compound 50, RLIEDI-LW, "-" represents cysteine-proline-cysteine] | 0.2855 | 0.3359 | 1.14
RLIEDICPCTW [Compound 32, RLIEDI-TW, "-" represents cysteine-proline-cysteine] | 0.1126 | – | –
RLIEDQCPCLW [Compound 16, RLIEDQ-LW, "-" represents cysteine-proline-cysteine] | 0.06092 | – | –
RLIEDTCPCLW [Compound 27, RLIEDT-LW, "-" represents cysteine-proline-cysteine] | 0.08956 | – | –
RLIENICPCLW [Compound 14, RLIENI-LW, "-" represents cysteine-proline-cysteine] | 0.05331 | – | –
RLIEVICPCLW [Compound 37, RLIEVI-LW, "-" represents cysteine-proline-cysteine] | 0.1503 | – | –
RLIKDICPCLW [Compound 36, RLIKDI-LW, "-" represents cysteine-proline-cysteine] | 0.1404 | – | –
RLIQDICPCLW [Compound 18, RLIQDI-LW, "-" represents cysteine-proline-cysteine] | 0.06261 | – | –
RLIVDICPCLW [Compound 12, RLIVDI-LW, "-" represents cysteine-proline-cysteine] | 0.04895 | 0.2036 | 1.002
RLTEDICPCLW [Compound 7, RLTEDI-LW, "-" represents cysteine-proline-cysteine] | 0.03902 | – | –
RLVEDICPCLW [Compound 20, RLVEDI-LW, "-" represents cysteine-proline-cysteine] | 0.06407 | – | –
RQIEDICPCLW [Compound 2, RQIEDI-LW, "-" represents cysteine-proline-cysteine] | 0.02306 | 0.2243 | 1.232
RVIEDICPCLW [Compound 19, RVIEDI-LW, "-" represents cysteine-proline-cysteine] | 0.06391 | 0.2112 | 1.089
